Like-named read-outs stand apart in the source and are kept apart here. One block for each compound: values may come before it.
Key:
[1] = Further study of other liguzinediol derivatives (activity, arrhythmia); settings: no details given
[2] = Pharmacokinetics in Sprague-Dawley rats (plasma, HPLC); type: in vivo; settings: SD rat; for AUC / half-life: gavage and tail vein dosing
[3] = tested on: isolated rat heart [Isolated Rat Heart]; settings: pharmacological studies; cited from earlier work
[4] = molecular target: T1, SERCA2a in cardiomyocytes [心肌细胞内的SERCA2a靶点] (Homo sapiens, UniProt P16615); settings: mechanism study; cited from earlier work
T1 construct: 心肌细胞内的SERCA2a靶点; endogenous in cells

[5] = cited from earlier work
[6] = 10 mg/kg, low dose (doses 10, 20, 40 mg·kg-1), route not given
[7] = 20 mg/kg, middle dose (doses 10, 20, 40 mg·kg-1), route not given
[8] = high dose (doses 10, 20, 40 mg·kg-1), route not given

T1 sequence (P16615 1-997 isoform P16615-2): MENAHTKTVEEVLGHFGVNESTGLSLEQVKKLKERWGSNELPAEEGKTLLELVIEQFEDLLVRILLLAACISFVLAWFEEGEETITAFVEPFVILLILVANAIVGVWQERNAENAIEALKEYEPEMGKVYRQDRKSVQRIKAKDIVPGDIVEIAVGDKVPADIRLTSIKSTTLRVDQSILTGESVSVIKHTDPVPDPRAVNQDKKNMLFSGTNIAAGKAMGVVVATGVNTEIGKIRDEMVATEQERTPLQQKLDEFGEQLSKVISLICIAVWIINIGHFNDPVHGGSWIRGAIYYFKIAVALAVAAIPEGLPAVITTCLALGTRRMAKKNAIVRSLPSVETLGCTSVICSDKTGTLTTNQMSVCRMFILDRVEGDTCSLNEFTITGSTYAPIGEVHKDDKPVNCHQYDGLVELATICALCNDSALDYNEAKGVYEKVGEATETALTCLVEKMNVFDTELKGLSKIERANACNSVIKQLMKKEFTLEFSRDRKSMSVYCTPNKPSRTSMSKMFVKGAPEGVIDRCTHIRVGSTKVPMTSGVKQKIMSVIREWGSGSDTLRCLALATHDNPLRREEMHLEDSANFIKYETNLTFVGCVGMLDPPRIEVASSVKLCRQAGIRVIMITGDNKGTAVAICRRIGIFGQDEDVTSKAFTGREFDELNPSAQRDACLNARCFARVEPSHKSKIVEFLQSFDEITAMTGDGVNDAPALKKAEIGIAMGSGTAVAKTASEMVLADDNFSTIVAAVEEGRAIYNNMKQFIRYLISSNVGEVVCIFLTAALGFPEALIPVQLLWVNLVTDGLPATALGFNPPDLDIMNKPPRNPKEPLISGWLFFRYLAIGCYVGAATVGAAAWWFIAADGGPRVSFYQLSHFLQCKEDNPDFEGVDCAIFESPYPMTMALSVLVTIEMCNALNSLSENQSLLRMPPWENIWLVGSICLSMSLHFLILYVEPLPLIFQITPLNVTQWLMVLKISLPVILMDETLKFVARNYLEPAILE

SMILES: CCOCc1nc(C)c(COCC)nc1C [2,5-二乙氧甲基-3,6-二甲基吡嗪]
arrhythmia [1]: 会导致心律失常

AUC [2, 6]: 34000 ng·h/mL
half-life [2, 6]: 3.7 h
AUC [2, 7]: 70000 ng·h/mL
half-life [2, 7]: 3.6 h
AUC [2, 8]: 135000 ng·h/mL
half-life [2, 8]: 3.5 h
clearance ([2]; low, middle and high doses, route not given): ~5 mL/min/kg
bioavailability ([2]; po, gavage and tail vein injection, 10, 20, 40 mg·kg-1): 90%
SMILES: CCC(O)c1nc(C)c(C(O)CC)nc1C (stereo not drawn) [化合物2, 2,5-二-(1-羟基丙基)-3,6-二甲基吡嗪]

SMILES: Cc1nc(CO)c(C)nc1CO [liguzinediol, 2,5-二羟甲基-3,6-二甲基吡嗪]
arrhythmia side effect [3]: 没有心律失常副作用
positive inotropic effect [3]: 明显的正性肌力作用
mechanism of positive inotropic effect [4]: 通过作用于心肌细胞内的SERCA2a靶点而发挥正性肌力作用
half-life ([5]; in animals): 1.6 h
metabolic rate ([5]; in animals): 相对较快
glucuronide conjugate formation ([5]; in vivo): 很快地形成了葡萄糖醛酸结合物而排出体外
oxidation of hydroxymethyl and side-chain methyl ([5]; in vivo): 容易被氧化成极性和水溶性较大的化合物而排出体外

SMILES: COCc1nc(C)c(COC)nc1C [2,5-二甲氧甲基-3,6-二甲基吡嗪]
arrhythmia [1]: 会导致心律失常

SMILES: Cc1nc(C(=O)O)c(C)nc1C(=O)O [3,6-二甲基-2,5-吡嗪二甲酸]
activity [1]: 明显下降

From patent publication CN103301132A, “川芎嗪仲、叔醇类衍生物及其在制药中的应用” (Nanjing University of Chinese Medicine, priority 2013, dated 2013)
